Data on four compounds can be found in patent publication US6156899A, “N-aryl-2-hydroxyalkylamido compositions for inducing/stimulating hair growth and/or retarding hair loss and/or for treating hyperseborrhea and/or acne” (Societe L'Oreal S.A., priority 1997, dated 2000).

One may read the IC50 as the concentration that gives 50% inhibition.

One assay has as its target T1, androgen receptor (Rattus norvegicus, UniProt P15207).
T1 sequence (P15207 1-902): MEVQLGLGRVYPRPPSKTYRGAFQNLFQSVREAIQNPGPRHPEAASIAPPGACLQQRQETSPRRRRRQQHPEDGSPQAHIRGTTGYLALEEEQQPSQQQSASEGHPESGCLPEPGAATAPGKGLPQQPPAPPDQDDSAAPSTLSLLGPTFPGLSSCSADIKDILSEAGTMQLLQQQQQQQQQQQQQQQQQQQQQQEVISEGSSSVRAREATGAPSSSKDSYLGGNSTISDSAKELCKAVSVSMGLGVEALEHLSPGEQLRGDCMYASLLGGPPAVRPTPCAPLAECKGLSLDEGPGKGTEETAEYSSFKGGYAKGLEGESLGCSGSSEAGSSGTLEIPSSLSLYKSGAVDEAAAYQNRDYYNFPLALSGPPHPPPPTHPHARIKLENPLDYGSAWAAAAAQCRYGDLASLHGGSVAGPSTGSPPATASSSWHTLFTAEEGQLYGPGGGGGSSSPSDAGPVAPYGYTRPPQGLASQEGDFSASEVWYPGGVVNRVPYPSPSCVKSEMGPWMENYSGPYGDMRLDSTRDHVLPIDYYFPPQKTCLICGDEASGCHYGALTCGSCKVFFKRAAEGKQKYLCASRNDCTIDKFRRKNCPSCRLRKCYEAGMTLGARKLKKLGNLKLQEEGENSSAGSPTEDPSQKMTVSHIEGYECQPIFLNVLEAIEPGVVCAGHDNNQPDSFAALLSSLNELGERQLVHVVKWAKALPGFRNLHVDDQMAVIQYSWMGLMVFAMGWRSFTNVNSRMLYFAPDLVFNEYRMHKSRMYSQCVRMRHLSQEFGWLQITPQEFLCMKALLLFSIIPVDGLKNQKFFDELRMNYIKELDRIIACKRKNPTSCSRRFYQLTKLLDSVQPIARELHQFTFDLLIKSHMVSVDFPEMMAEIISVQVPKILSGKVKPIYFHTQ
Briefly: Affinity (IC50) for the androgen receptor: inhibition of the binding of testosterone (Schilling and Liao technique). How it is done: Measurement of the Affinity (IC50) of the Ethyl Ester of (4-Cyano-3-(trifluoromethyl)phenyl)(3,3,3-trifluoro-2-hydroxy-2-methylpropionyl)carbamic Acid (Example 1) and of (4-Cyano-3-(trifluoromethyl)phenyl)(3,3,3-trifluoro-2-hydroxy-2-methylpropionyl)carbamic Acid (Example 2) for the Androgen Receptor:
These measurements of receptor affinity for the androgen receptor were carried out according to the technique of Schilling and Liao, described in The Prostate, 5, p. 581-588 (1984).
During the experimentation, the reference molecule (mibolerone) was tested in parallel at 8 concentrations, in order to validate the experiment.

Assay [1] concerns rings of the thoracic region of the aorta (aortic smooth muscles). Kind of assay: Potassium channel opener activity: in vitro relaxant power on rings of the thoracic region of the aorta contracted with KCl. Type of assay: cell-based. The following applies: for mixed activity (potassium channel opener/antiandrogen): conclusion from Tables I and II; for IC50: read-out: Inhibition contraction isolated aorta induced by K+: IC50. On the procedure: Measurement of the Activity of "Potassium Channel Opener" Type of the Ethyl Ester of (4-Cyano-3-(trifluoromethyl)phenyl)(3,3,3-trifluoro-2-hydroxy-2-methylpropionyl)carbamic Acid (Example 1) and of (4-cyano-3-(trifluoromethyl)phenyl)(3,3,3-trifluoro-2-hydroxy-2-methylpropionyl)carbamic Acid (Example 2) by the in Vitro Measurement of the Relaxant Power of the Molecules on Rings of the Thoracic Region of the Aorta (IC50):
The experiments were carried out according to the techniques of Newgreen et al. (Br. J. Pharmacol., 100, p. 605-613 (1990)), Bray et al. (Arch. Pharmacol., 344, p. 351-359 (1991)) and Wickerden et al. (Br. J. Pharmacol., 103, 1148-1152 (1991)).
After they had been mounted into the isolated organ vessels, the tissues (aortic smooth muscles) were subjected to an initial tension of 2 g.
After an equilibration period, the tissues were exposed to a potassium chloride solution (20 mM KCl), in order to obtain a sustained contractile response.
After stabilization of this contractile response, the relaxant activity (of potassium channel opener type) of the test molecules was evaluated as a function of the concentration applied.
During the experimentation, two reference molecules were employed: cromakalim and minoxidil.

Where [2] appears, read: 20 mM KCl, thoracic aorta rings, initial tension 2 g.

Where two headings read alike, the source gives them in different places.

For `CCOC(=O)N(C(=O)C(C)(O)C(F)(F)F)c1ccc(C#N)c(C(F)(F)F)c1` (centres unmarked) [Example 1, Ethyl Ester of (4-Cyano-3-(trifluoromethyl)phenyl)(3,3,3-trifluoro-2-hydroxy-2-methylpropionyl)carbamic Acid], at androgen receptor, the IC50 was 2000 nM. Also, in assay [1], the “mixed activity (potassium channel opener/antiandrogen)” value is reported as “mixed activity” and the IC50 turned out to be 2000 nM.
In the case of `CC(O)(C(=O)N(C(=O)O)c1ccc(C#N)c(C(F)(F)F)c1)C(F)(F)F` (centres unmarked) [Example 2, (4-Cyano-3-(trifluoromethyl)phenyl)(3,3,3-trifluoro-2-hydroxy-2-methylpropionyl)carbamic Acid], the half-inhibitory concentration (IC50) at androgen receptor came out at 4000 nM. Further, in assay [1], the “mixed activity (potassium channel opener/antiandrogen)” value is “mixed activity” and the half-inhibitory concentration (IC50) worked out at 3000 nM.
For `CC1(C)Oc2ccc(C#N)cc2C(N2CCCC2=O)C1O` (centres unmarked) [cromakalim, reference compound], the IC50 in assay [1] (setting [2]) was about 1000 nM.
The same measure, in the same setting: the value for `Nc1cc(N2CCCCC2)nc(N)[n+]1[O-]` [minoxidil, 2,4-diamino-6-piperidinopyrimidine 3-oxide, reference compound] was about 1000 nM.
